Laboratory results published in patent publication US11878028B1 (HENAN GENUINE BIOTECH CO., LTD., priority 2023, dated 2024).

Legend:
[1] = system: human lung cancer NCI-H1975 (EGFRL858R/T790M) cell line; assay: Anti-tumor effect of azvudine with osimertinib in NCI-H1975 subcutaneous xenograft mice (Example 1); type: in vivo, BALB/c nude mice; details: for Tumor volume on the 28th day of grouping administration: day 28; for Tumor volume on the 28th day of grouping administration / Tumor weight: mean ± standard error; for Tumor weight / Tweight/Cweight: end of experiment; for Tumor weight: combination; for Tweight/Cweight: tumor weight of treatment group / solvent control group
Source text: Animals were kept in IVC (independent ventilation system) cages (4 per cage) in SPF grade animal room. The number of animals in the cage, gender, strain, date of receipt, administration regimen, experiment number, group and date of start of the experiment were indicated on the animal information card for each cage. All cages, bedding and drinking water were sterilized before use. Cages, feed and drinking water were changed twice a week. […] The bedding was corn cobs, and was changed twice a week. • Food: Experimental animals had free access to food (irradiation sterilized, dry pelleted food) throughout the whole experimental process. • Drinking water: Experimental animals can freely drink sterilized water. • Cage identification: The number of animals in the cage, gender, strain, date of receipt, • administration regimen, experiment number, group and date of start of the experiment should be indicated on the animal information card for each cage. • Animal identification: Experimental animals were identified with ear tags.
When the cell fusion degree of each bottle reached more than 90%, the cells were digested and resuspended in PBS. The cells were counted to reach a concentration of 5×10^7/ml by using a cell counter, and each mouse was injected with 0.1 ml of cell suspension. The 8th generation cells were inoculated subcutaneously in nude mice. When the tumor grew to about 800 mm^3, the tumor was taken out and cut into a size of 2*2*2 mm^3. The chopped tumor was inoculated on the right back of each mouse. When the average volume of the tumor measured after inoculation reached 100-120 mm^3, grouping administration was started using a random stratified grouping method according to the tumor volume and animal body weight. The lung cancer cell line model was randomly divided into 4 experimental groups with 8 mice in each group. The mice were continuously administered for 28 days after grouping.
(Ti: mean tumor volume of the treatment group on the i^th day of administration, T0: mean tumor volume of the treatment group on the 0th day of administration; Vi: mean tumor volume of the solvent control group on the i^th day of administration, V0: mean tumor volume of the solvent control group on the 0th day of administration)
At the end of the experiment, the surviving animals were euthanized, and the tumor tissue was taken, and weighed to obtain the tumor weight.

[2] = system: human lung cancer NCI-H1975 (EGFRL858R/T790M) cell line; assay: Anti-tumor effect of azvudine with doxitinib in NCI-H1975 subcutaneous xenograft mice (Example 2); type: in vivo, BALB/c nude mice; details: for Tumor volume / Tumor volume on the 20th day: mean ± SEM, azvudine 1 mg/kg, doxitinib […], combination 1 + […]; for Tumor volume: in mm³
Source text: Animals were kept in IVC (independent ventilation system) cages (4 per cage) in SPF grade animal room. The number of animals in the cage, gender, strain, date of receipt, administration regimen, experiment number, group and date of start of the experiment were indicated on the animal information card for each cage. All cages, bedding and drinking water were sterilized before use. Cages, feed and drinking water were changed twice a week. The breeding environment and light conditions were as follows: • Temperature: 20˜26° C. • Humidity: 40˜70% • Lighting cycle: 12 hours of light, 12 hours of no light (the light was turned on at 8 am and turned off at 8 pm) • Cage: Cages were made of polycarbonate, with a volume of 325 mm×210 mm×180 mm. The bedding was corn cobs, and was changed twice a week. • Food: Experimental animals had free access to food (irradiation sterilized, dry pelleted food) throughout the whole experimental process. • Drinking water: Experimental animals can freely drink sterilized water. • Cage identification: The number of animals in the cage, gender, strain, date of receipt, • administration regimen, experiment number, group and date of start of the experiment should be indicated on the animal information card for each cage. • Animal identification: Experimental animals were identified with ear tags.
NCI-H1975 cells were cultured in RPMI 1640 medium containing 10% fetal bovine serum in a 37° C. and 5% CO2 incubator. The cells were routinely passaged once a week. When the cell saturation reached 80%-90% and the number achieved the requirement, the cells were collected, counted and inoculated.
0.1 mL (5×10^6) of NCI-H1975 cells were subcutaneously inoculated on the right back of each mouse, and the grouping administration was started when the average tumor volume reached about 154 mm 3.
The experimental index was to investigate whether tumor growth was inhibited, delayed or cured. Tumor diameter was measured with a vernier caliper twice a week or every other day. The tumor volume was calculated according to the formula of: V=0.5a×b^2, where a and b represented the long diameter and short diameter of the tumor, respectively.
The anti-tumor efficacy of the compounds was evaluated by TGI (%) or relative tumor proliferation rate T/C (%). TGI (%) reflected the inhibition rate of tumor growth.
Relative tumor proliferation rate T/C (%) was calculated according to the formula as follows: T/C %=TRTV/CRTV×100% (TRTV represented the average RTV of the treatment group; CRTV Represented the Average RTV of the Negative Control Group). Relative Tumor Volume (RTV) was calculated based on the results of measurement of tumor according to the formula of RTV=Vt/V0, where V0 represented the tumor volume measured during grouping administration (i.e. d0), and Vt represented the tumor volume obtained in a certain measurement, and TRTV and CRTV were collected from the data on the same day.
Statistical analysis included mean and standard error (SEM) of tumor volume at each time point for each group (see Table 3 for specific data). […] The comparison between two groups was analyzed by T-test, and the comparison between three or more groups was analyzed by one-way ANOVA. All data analysis was performed with Prism. p<0.05 was considered significant difference.

[3] = azvudine 1 mpk, osimertinib 2.5 mpk, combination 2.5 + 1 mpk
[4] = azvudine 1 mpk, osimertinib 2.5 mpk
[5] = based on tumor volume on the 20th day after administration

Row | Compound | Effect on tumor proliferation (in words) ([1]; NCI-H1975 tumor-bearing mouse model) | TGITV (tumor volume inhibition rate) ([1]; after 28 days of administration, azvudine 1 mpk, osimertinib 2.5 mpk, combination 2.5 + 1 mpk) | TGITV (tumor volume inhibition rate) ([1]; after 28 days of administration, azvudine 1 mpk, osimertinib 2.5 mpk, combination 2.5 + 1 mpk, listed as azvudine) | Tumor volume on the 28th day of grouping administration [1, 3] | Tumor weight [1, 4] | Tweight/Cweight [1] | Effect on tumor growth (in words) ([2]; NCI-H1975 xenograft tumor mouse model) | TGI [2, 5] | Tumor volume ([2]; day 0 after administration) | Tumor volume ([2]; day 3 after administration) | Tumor volume ([2]; day 6 after administration) | Tumor volume ([2]; day 10 after administration) | Tumor volume ([2]; day 13 after administration) | Tumor volume ([2]; day 17 after administration) | Tumor volume on the 20th day ([2]; day 20 after administration) | Tumor volume ([2]; day 20 after administration) | Tumor volume ([2]; day 24 after administration) | TGITV (tumor volume inhibition rate) ([1]; mouse, in vivo) | T/C (relative tumor proliferation rate) [2, 5]
1 | [N-]=[N+]=N[C@]1(CO)O[C@@H](n2ccc(N)nc2=O)[C@@H](F)[C@@H]1O [Azvudine, azvudine] | inhibitory effect on tumor proliferation in a dose-dependent manner | 35.7% | 35.7% | 628.3 ± 165.4 mm^3 | 879.3 ± 226.9 mg | 49.5% | inhibitory effect on tumor growth in a dose-dependent manner | 54.01% | 154 ± 11 | 252 ± 25 | 447 ± 46 | 614 ± 78 | 774 ± 106 | 1,102 ± 118 | 1,396 ± 162 mm3 | 1,396 ± 162 | 2,382 ± 305 |  | 
2 | C=CC(=O)Nc1cc(Nc2nccc(-c3cn(C)c4ccccc34)n2)c(OC)cc1N(C)CCN(C)C [Osimertinib, osimertinib] |  |  |  | 377.9 ± 90.8 mm^3 | 716.9 ± 207.4 mg | 40.3% |  |  |  |  |  |  |  |  |  |  |  | 66.4% | 
3 | doxitinib |  |  |  |  |  |  |  | 87.50% | 154 ± 12 | 180 ± 19 | 232 ± 27 | 277 ± 34 | 350 ± 65 | 395 ± 86 | 492 ± 109 mm3 | 492 ± 109 | 802 ± 220 |  | 15.77%
